Measured values taken from PubChem BioAssay (NCI).
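Where inhibition never reached the appropriate level, the endpoint shown equals the highest concentration tested. Otherwise, values were interpolated linearly from a five-concentration, 48-hour dose response in 96-well plates. Here, GI50 denotes the concentration required for 50% inhibition of growth. TGI is the concentration that stops growth completely.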 *1 amine or outer side, *2 acyl side, *3 side chain or, on linkers, in order; H or OH if unused. Where a SMILES comes first, the peptide text is derived from it. [ ]: non-standard residue; d: D form. ξ: configuration not given here. X21 = CC[C@@H](C)C(N[*:1])C(=O)[*:2]; ξR = N=C(N)NCCCC(N)C(=O)O; ξI = CCC(C)C(N)C(=O)O; ξL = CC(C)CC(N)C(=O)O; ξK = NCCCCC(N)C(=O)O; ξV = CC(C)C(N)C(=O)O; ξA = CC(N)C(=O)O

Assays:
Assay in all cases: NCI anticancer screen, dose series, 48 h
U251 CNS = tested on: U251 CNS
HCT-116 colon = tested on: HCT-116 colon
HCT-15 colon = tested on: HCT-15 colon
T-47D breast = tested on: T-47D breast
SK-MEL-28 melanoma = tested on: SK-MEL-28 melanoma
NCI/ADR-RES ovarian = tested on: NCI/ADR-RES ovarian
PC-3 prostate = tested on: PC-3 prostate
HCC-2998 colon = tested on: HCC-2998 colon
OVCAR-8 ovarian = tested on: OVCAR-8 ovarian
HS 578T breast = tested on: HS 578T breast

SMILES	GI50 (U251 CNS)	TGI (U251 CNS)	GI50 (HCT-116 colon)	TGI (HCT-116 colon)	GI50 (HCT-15 colon)	TGI (HCT-15 colon)	GI50 (T-47D breast)	TGI (T-47D breast)	GI50 (SK-MEL-28 melanoma)	TGI (SK-MEL-28 melanoma)	GI50 (NCI/ADR-RES ovarian)	TGI (NCI/ADR-RES ovarian)	GI50 (PC-3 prostate)	TGI (PC-3 prostate)	GI50 (HCC-2998 colon)	TGI (HCC-2998 colon)	GI50 (OVCAR-8 ovarian)	TGI (OVCAR-8 ovarian)	GI50 (HS 578T breast)	TGI (HS 578T breast)
O=C1CCS/C(=N\S(=O)(=O)c2ccc(N3N=C4c5ccccc5CC4C3c3cccs3)cc2)N1C(=O)c1ccccc1 (stereo not given)	4.5 µM	17.4 µM	10 µM	21.6 µM	15.1 µM	31.3 µM	> 100 µM	> 100 µM	50.2 µM	> 100 µM	32.9 µM	> 100 µM	29.2 µM	> 100 µM	18.2 µM	32.1 µM	0.816 µM	17.5 µM	2.85 µM	34.2 µM
C=C1C(=O)OC2CC(C)C3C=CC(=O)C3CC12 (stereo not given)	–	20.6 µM	–	2.7 µM	–	4.16 µM	–	5.77 µM	–	4.16 µM	–	–	–	7.17 µM	–	16.5 µM	–	14.4 µM	–	6.53 µM
C=C1C(=O)O[C@H]2[C@H]1CC/C(Cn1cc(-c3cc(C)c(C)cc3C)nn1)=C\CC[C@@]1(C)O[C@@H]21	1.53 µM	2.91 µM	0.336 µM	1.06 µM	0.201 µM	0.548 µM	0.539 µM	2.45 µM	1.4 µM	2.89 µM	2.51 µM	12.9 µM	1.47 µM	3 µM	1.72 µM	3.33 µM	0.927 µM	2.38 µM	1.94 µM	6.2 µM
COc1ccc(OC)c2c(=S)c3ccccc3[nH]c12	–	> 100 µM	–	> 100 µM	–	> 92.5 µM	–	> 100 µM	–	> 100 µM	–	> 100 µM	–	> 100 µM	–	> 100 µM	–	> 100 µM	–	> 100 µM
CCC(C)C1NC(=O)C(CC(C)C)NC(=O)C(C)NC(=O)C(C(C)C)NC(=O)C(CCCCN)NC(=O)C(CC(C)C)NC(=O)C(C(C)C)NC(=O)[C@H](C)NC(=O)C(C(C)CC)NC(=O)C(CCCN=C(N)N)NC(=O)C(CCCCN)NC(=O)C(CCCN=C(N)N)NC(=O)C(CCCCN)NC(=O)C([C@H](C)CC)NC(=O)C(CCCCN)NC1=O (stereo not given in full) (cyclo(A[ξV][ξL][ξK][ξV][ξA][ξL][ξI][ξK][X21][ξK][ξR][ξK][ξR][ξI]))	1.5 µM	3.44 µM	1.35 µM	2.84 µM	1.48 µM	3.58 µM	0.756 µM	4.28 µM	1.82 µM	4.34 µM	1.06 µM	3.84 µM	0.701 µM	4.85 µM	1.83 µM	4.22 µM	1.48 µM	4.87 µM	1.72 µM	4.63 µM
Nc1ncnc2c1cnn2Cc1ccc(Cl)cc1	–	> 100 µM	–	> 100 µM	–	> 100 µM	–	> 100 µM	74.8 µM	> 100 µM	–	> 100 µM	–	> 100 µM	–	> 100 µM	–	> 100 µM	–	> 100 µM
O=C(Nc1cccc(-n2cc(-c3ccncc3)c(-c3ccc(O)c(Cl)c3)n2)c1)Nc1cccc(C(F)(F)F)c1	1.4 µM	4.8 µM	2.05 µM	5.87 µM	2.24 µM	10.2 µM	1.97 µM	7.3 µM	1.95 µM	6.18 µM	3.24 µM	> 100 µM	2.47 µM	8.96 µM	4.3 µM	37.5 µM	2.41 µM	11.1 µM	1.51 µM	7.08 µM
